Reference: patent publication US10071954B2, “Hydrogen peroxide-activated compounds as selective anti-cancer therapeutics” (University of Cincinnati, priority 2014, dated 2018)
Where two headings read alike, the source gives them in different places.

What was measured:
[1] = Oxidation of compound 1 to 2 in PBS, HPLC analysis; assay type: physicochemical
Description: To mimic cellular addition, 1 was incubated in PBS with limiting N-acetylcysteine and the products were analyzed by HPLC (FIG. 3C). The limiting N-acetylcysteine was necessary due to the formation of multiple addition products, since addition of a thiol to the aromatic ring makes further oxidation and addition easier. Compound 1 was converted to 2 in the absence of exogenous oxidant at a rate of 0.011±0.002 min^−1 (FIG. 3D, grey line), which leads to approximately 50% conversion in one hour. ROS-induced activation of 1 was then assessed. In the presence of 10 mM H2O2, a ten-fold excess, the rate of conversion was enhanced by […] to 0.6±0.1 min^−1. Once 2 was formed, N-acetylcysteine was added and NAC-2 was rapidly produced (FIG. 3C, black line) as confirmed by FTMS (FIG. 3E).

MA9.3RAS AML cells = assay: MTT cytotoxicity assay in MA9.3RAS AML cells; assay type: cell-based, human
Description: (§1) Cells were seeded at a density of 4×10^4 cells/well in a 96-well plate and incubated at 37° C. overnight. Then cells were treated for 48 hours with indicated concentrations of freshly dissolved compounds. The plates were centrifuged at 1500×g for 5 minutes at 4° C. to pellet the cells and the medium containing compounds was discarded; fresh medium containing 20 μL of MTT (5 mg/mL) was added to each well and incubated for an additional 4 h. The medium was removed. After adding 200 μL of DMSO to each well, the optical densities at 575 nm were determined. Cytotoxicity data are expressed as IC50 values obtained from the fit to a four parameter sigmoid using the graphing software KaleidaGraph (Synergy Software). All R^2 values were greater than 0.98 and standard errors of the three replicates were less than 20%.
Structural components within 1 were then probed to determine effect on potency. The goal was to obtain activity that matched the two natural products, PTL and PLG, which show efficacy in tumor xenografts in mice. As a model system cytotoxicity of synthesized agents in the MA9.3RAS AML cell line was examined. These cells are transformed CD34^+ human blood stem cells engineered to express both an MLL-AF9 fusion protein and the common oncogene NrasG12D. Culturing was accomplished as previously described by Wunderlich, et al., Leukemia 24(10):1785-88 (2010). The molecular signatures associated with these cells closely mimic those identified in primary AML patient samples and the MLL-fusion is associated with poor survival. Cytotoxicity studies were performed in triplicates using an MTT cell proliferation assay. All MTT assays were repeated twice.

[2] = system: CD34+ normal human blood stem cells vs MA9.3RAS AML cells; assay: Selectivity factor: ratio of IC50 of normal cells over IC50 of AML cells; assay type: cell-based; settings: for selectivity factor (ratio of IC50 of normal cells over IC50 of AML cells): CD34+ normal human blood stem cells / MA9.3RAS AML cells
Source text: (§2) The selectivity of select compounds was examined by treatment of primary CD34^+ normal human blood stem cells. These are untransformed and are genetically similar to MA9.3RAS cells except they lack the MLL-AF9 oncogene and active Nras^G12D oncogene. It is essential that reactive agents be selective since off-target reactivity is of great concern. In anti-cancer compounds, a selectivity factor, which in this instance is the ratio between the IC50 of normal cells over the IC50 of the AML cells, of one log unit is desired. Compound 1 is marginally selective with a ratio of 2.0±0.2. […] Conversion of the aniline to an alkyl amine led to improved selectivity.

KEAP1 = assay: Western blot against KEAP1 normalized to beta-actin; assay type: cell-based; settings: AML cells
Description: Finally, reactivity of 14 in a cell was examined (FIG. 8B). To accomplish this, western blot against KEAP1, normalized to beta-actin was performed. KEAP1 is a signaling molecule that inhibits NRF2^25, the transcription factor that regulates anti-oxidant concentrations in cells.

[3] = system: A_MA9 + FLT3 (Individual 1 transformed with MLL-AF9 and FLT3-ITD); assay: IC50 panel, A_MA9 + FLT3; assay type: cell-based
Source text: (§3) Selectivity of compound 14 was examined by measuring IC50 against a variety of cell types, including AML cells obtained from individuals as well as common cell lines and healthy untransformed cells.

[4] = system: B_MA9 + FLT3 (Individual 2 transformed with MLL-AF9 and FLT3-ITD); assay: IC50 panel, B_MA9 + FLT3; assay type: cell-based
Source text: as §3

[5] = Oxidation of compound 14, HPLC analysis; assay type: physicochemical
Description: These products were produced via both spontaneous and hydrogen-peroxide induced oxidation but not under an argon atmosphere (FIG. 4C right hand side). […] Importantly, addition of one molar equivalent hydrogen peroxide led to a near instantaneous conversion to the oxidized products. Using the lower limit of t1/2 less than 1 min leads to a large rate enhancement. Initially, the two products were isolated and a high-resolution MS was obtained on both. […] Several tautomers of 14-ox are possible (see FIG. 5A).

[6] = system: MOLM13 (common AML cell line); assay: IC50 panel, MOLM13; assay type: cell-based; settings: Homo sapiens, MOLM-13
Source text: as §3

[7] = system: A_MA9 (Individual 1 transformed with MLL-AF9 fusion); assay: IC50 panel, A_MA9; assay type: cell-based
Source text: as §3

[8] = system: B_MA9 (Individual 2 transformed with MLL-AF9); assay: IC50 panel, B_MA9; assay type: cell-based
Source text: as §3

[9] = system: HL60 (common AML cell line); assay: IC50 panel, HL60; assay type: cell-based; settings: Homo sapiens, HL-60
Source text: as §3

[10] = system: A_MA9 + Nras (Individual 1 transformed with MLL-AF9 and NrasG12D); assay: IC50 panel, A_MA9 + Nras; assay type: cell-based
Source text: as §3

[11] = system: UT (healthy untransformed cells); assay: IC50 panel, healthy untransformed cells; assay type: cell-based
Source text: as §3

AML cells = assay: Cellular ROS level by DCF fluorescence assay; assay type: cell-based
Description: Though it is widely accepted that bulk AML cells have elevated concentrations of reactive oxygen, it was desirable to ensure that the instant models had higher levels of ROS than healthy cells. CD34+ blood stem cells were harvested from three donors. Cells were counted, incubated with 2,7-dihydrodichlorofluorescein (DCF) diacetate, and their respective fluorescence compared after 30 min (FIG. 7). After deacylation, DCF is oxidized by a broad spectrum of ROS species and oxidases. Thus is a marker of general ROS and oxidation within cells. The three CD34+ selected UCB cell populations each derived from different healthy donors referred as #1 through #3 (FIG. 7) had fluorescence intensity of 0.69±0.03 (p<0.002), 0.60±0.03 (p<10^−6), 0.54±0.02 (p<10^−6) compared to 1.00±0.02 in the AML cell model.
In order for 14 to be ROS-activatable, it needs to enter a cell and react with hydrogen peroxide, thereby lowering a cell's total ROS level as measured by DCF fluorescence (FIG. 8A). It should be noted that because 14 is highly lethal, concentrations ten-fold higher than the IC50 are required to lower a cell's ROS level. […] Similar experiments lacking addition of 14 show statistically significant increases in fluorescence intensities (p<0.001 for all time points while pretreated data set was not statistically significant from each other) with the endpoint having an intensity of 5.02±0.08.

[12] = system: Kasumi1 (common AML cell line); assay: IC50 panel, Kasumi1; assay type: cell-based; settings: Homo sapiens, Kasumi 1
Source text: as §3

[13] = system: B_MA9 + Nras (Individual 2 transformed with MLL-AF9 and NrasG12D); assay: IC50 panel, B_MA9 + Nras; assay type: cell-based
Source text: as §3

[14] = system: CD34+ selected human umbilical cord blood cells (UCB); assay: MTT cytotoxicity assay in CD34+ selected umbilical cord blood cells (normal blood stem cells); assay type: cell-based; settings: for IC50: CD34+ selected human umbilical cord blood cells, 48 hours treatment, MTT, read-out: IC50 against UCB
Description: as §1, §2

[15] = Homo sapiens, MA9.3RAS AML cell line, MTT cell proliferation assay (Table 2 and text), read-out: IC50
[16] = Homo sapiens, MA9.3RAS, MA9.3 AML cells, MTT assay (Table 3), read-out: IC50

CN(CC(=O)Nc1cc(O)ccc1O)c1ccccc1 [Compound 1]
rate of conversion of 1 to 2 ([1]; PBS, absence of exogenous oxidant): 0.011 ± 0.002 min⁻¹ | conversion of 1 to 2 in one hour ([1]; absence of exogenous oxidant): approximately 50% | rate of conversion of 1 to 2 ([1]; presence of 10 mM H2O2, ten-fold excess): 0.6 ± 0.1 min⁻¹ | rate of conversion of 1 into 2 ([1]; with hydrogen peroxide (FIG. 3D legend)): 0.6 min⁻¹

CN(CC(=O)NC1=CC(=O)C=CC1=O)c1ccccc1 [Compound 2]
IC50 (MA9.3RAS AML cells; [15]): 21 ± 4 µM

COc1ccc(OC)c(NC(=O)CN(C)c2ccccc2)c1 [Compound 3]
IC50 (MA9.3RAS AML cells; [15]): > 100 µM

CN(CC(=O)Nc1ccccc1O)c1ccccc1 [Compound 4]
IC50 (MA9.3RAS AML cells; [15]): > 100 µM

CN(CC(=O)Nc1cccc(O)c1)c1ccccc1 [Compound 5]
IC50 (MA9.3RAS AML cells; [15]): > 100 µM

CC(=O)Nc1cc(O)ccc1O [Compound 6]
IC50 (MA9.3RAS AML cells; [15]): 35 ± 5 µM | selectivity factor (ratio of IC50 of normal cells over IC50 of AML cells) [2]: Neither compound 6 nor compound 7 were selective

NC1=CC(=O)C=CC1=O [Compound 7]
IC50 (MA9.3RAS AML cells; [15]): 16 ± 2 µM | selectivity factor (ratio of IC50 of normal cells over IC50 of AML cells) [2]: Neither compound 6 nor compound 7 were selective

O=C(CO)Nc1cc(O)ccc1O [Compound 8]
IC50 (MA9.3RAS AML cells; [15]): 12 ± 3 µM

O=C(CNc1ccccc1)Nc1cc(O)ccc1O [Compound 9]
IC50 (MA9.3RAS AML cells; [15]): 13 ± 2 µM

O=C(COc1ccccc1)Nc1cc(O)ccc1O [Compound 10]
selectivity factor (ratio of IC50 of normal cells over IC50 of AML cells) [2]: limited selectivity

O=C(CSc1ccccc1)Nc1cc(O)ccc1O [Compound 11]
selectivity factor (ratio of IC50 of normal cells over IC50 of AML cells) [2]: limited selectivity

CCCN(C)CC(=O)Nc1cc(O)ccc1O [Compound 12]
IC50 (MA9.3RAS AML cells; [15]): 18 ± 2 µM

O=C(CNC1CCCCC1)Nc1cc(O)ccc1O [Compound 14, 2-(cyclohexylamino)-N-(2,5-dihydroxyphenyl)acetamide]
KEAP1 level, in words (KEAP1; 2 μM): statistically significant reduction in KEAP1 | relative concentration of KEAP1 (KEAP1 to ACTB) (KEAP1; after 24 hrs): 0.65±0.09 | IC50 [3]: 1.8 ± 0.07 µM | IC50 [4]: 1.6 ± 0.1 µM | activation by hydrogen peroxide [5]: more than 150 fold | time for complete conversion of 14 ([5]; hydrogen peroxide (FIG. 4C legend)): less than 0.1 hours | t1/2 of oxidation ([5]; normal atmosphere, pseudo-zero order kinetics): 2.58 ± 0.217 h | t1/2 of oxidation ([5]; one molar equivalent hydrogen peroxide): less than 1 min | fraction of 14 converted to its oxidation product ([5]; two hours under argon atmosphere): 4±3% | IC50 [6]: 6 ± 1 µM | IC50 [7]: 4 ± 0.7 µM | IC50 [8]: 3.7 ± 0.1 µM | IC50 [9]: 4 µM | viability of AML cells, in words (MA9.3RAS AML cells; FIG. 6B): eradicated | IC50 (MA9.3RAS AML cells; [15]): 2 µM | IC50 [10]: 2.3 ± 0.08 µM | IC50 [11]: 22 ± 2 µM | cellular ROS levels (DCF fluorescence), in words (AML cells; 20 μM, AML cells): time dependent loss in cellular ROS levels | DCF fluorescence intensity at endpoint (AML cells; AML cells treated with 14, end of time course, without 14 5.02±0.08): 4.31±0.08 | DCF fluorescence intensity at addition of 14 (AML cells; AML cells, start of time course): 1.06±0.13 | IC50 [12]: 19 ± 3 µM | IC50 [13]: 2.5 ± 0.03 µM | IC50 [14]: 20 ± 2 µM | viability of normal blood stem cells, in words ([14]; concentration that eradicated AML cells, FIG. 6B): did not affect viability | selectivity ([2]; AML cells vs normal blood stem cells): 11 fold

Nc1ccc(O)c(NC(=O)CNC2CCCCC2)c1 [Compound 16, N-(5-amino-2-hydroxyphenyl)-2-(cyclohexylamino)acetamide]
IC50 (MA9.3RAS AML cells; Homo sapiens, MA9.3RAS, 48 hours treatment, MTT, read-out: IC50 against MA9.3RAS AML cells): 3 ± 1 µM | IC50 (MA9.3RAS AML cells; [16]): 5 ± 2 µM | IC50 [14]: 55 ± 4 µM

O=C(CNC1CCCCC1)Nc1cc([N+](=O)[O-])ccc1O [Compound 17]
IC50 (MA9.3RAS AML cells; [16]): 22 ± 7 µM

C[C@@H](NC1CCCCC1)C(=O)Nc1cc(O)ccc1O [Compound 18]
IC50 (MA9.3RAS AML cells; [16]): 104 ± 2 µM

O=C(Nc1cc(O)ccc1O)C(NC1CCCCC1)C1CCCCC1 (stereo not shown) [Compound 19]
IC50 (MA9.3RAS AML cells; [16]): 107 ± 1 µM

COc1cc(/C=C/C(=O)N2CCC=CC2=O)cc(OC)c1OC [PLG, piperlongumine, reference compound]
IC50 (MA9.3RAS AML cells; [15]): 2 ± 1 µM | selectivity factor (ratio of IC50 of normal cells over IC50 of AML cells) [2]: 3.7±1

parthenolide [PTL, reference compound]
IC50 (MA9.3RAS AML cells; MA9.3RAS AML cell line, MTT cell proliferation assay (Table 2 and text), read-out: IC50): 3 ± 1 µM | selectivity factor (ratio of IC50 of normal cells over IC50 of AML cells) [2]: 2.1±0.4
